# Reference: publication PMC6112376, “Comprehensive Analyses and Prioritization of Tox21 10K Chemicals Affecting Mitochondrial Function by in-Depth Mechanistic Studies” (Environmental Health Perspectives, 2018)
# Read-outs that look alike come from different tables or passages of the source.
# Legend:
# hNSC = experiment: MMP assay in human neural stem cells (hNSC); type: cell-based
# HepG2 cells [1] = experiment: ROS-Glo hydrogen peroxide (ROS) assay; type: cell-based, human; settings: for EC50: read-out: ROS (HepG2) EC50
# HepG2 cells [2] = experiment: Intracellular ATP content (cell viability) assay; type: cell-based, human
# [3] = test system: p53 (p53-bla HCT-116 cells); experiment: p53 β-lactamase reporter gene assay; type: cell-based, human
# [4] = test system: Nrf2/ARE (ARE-bla HepG2 cells); experiment: ARE β-lactamase reporter gene assay; type: cell-based, human
# [5] = test system: isolated rat liver mitochondria; experiment: Oxygen consumption, Clark-type oxygen electrode; type: biochemical
# HepG2 cells [6] = experiment: Oxygen consumption, Seahorse XF24 analyzer; type: cell-based, human
# [7] = test system: HeLa cells expressing YFP-Parkin; experiment: Parkin translocation assay; type: cell-based, human
# HepG2 cells [8] = test system: HepG2 cells
# rat primary hepatocytes [9] = test system: rat primary hepatocytes
# [10] = test system: Caenorhabditis elegans (Bristol N2); settings: in vivo
# [11] = test system: Caenorhabditis elegans strain PE255; settings: in vivo
# [12] = test system: Caenorhabditis elegans strain PE255; experiment: In vivo C. elegans ATP status assay
# rat primary hepatocytes [13] = experiment: MMP assay in rat primary hepatocytes
# [14] = test system: Caenorhabditis elegans (Bristol N2); experiment: C. elegans larval development and growth assay
# HepG2 cells [15] = settings: read-out: MMP assays IC50 (µM) qHTS-HepG2; cited from earlier work
# HepG2 cells [16] = experiment: cells; settings: Homo sapiens
smiles,measurement,setting,value
"N#CC(C#N)=NNc1ccc(OC(F)(F)F)cc1 [FCCP, carbonyl cyamide 4-(trifluoromethoxy)phenylhydrazone, reference compound]",hNSC (efficacy) (MMP),hNSC,0.27±0.08 ( −94.2±2.36 ) %
same,IC50,hNSC; read-out: hNSC IC50 (MMP),270 nM
same,ROS (HepG2) (efficacy),HepG2 cells [1],2.49±0.45 ( 35.9±5.66 ) %
same,EC50,HepG2 cells [1],2490 nM
same,"ATP (HepG2, galactose) (efficacy)",HepG2 cells [2],4.25±0.97 ( −91.9±3.75 ) %
same,"ATP (HepG2, glucose) (efficacy)",HepG2 cells [2],2.90±0.72 ( −90.1±9.46 ) %
same,IC50,"HepG2 cells [2]; read-out: ATP (HepG2, galactose) IC50",4250 nM
same,IC50,"HepG2 cells [2]; read-out: ATP (HepG2, glucose) IC50",2900 nM
same,p53 (HCT-116) EC50,[3],Inactive
same,ARE (HepG2) EC50,[4],Inactive
same,Potential Mechanism,[5],"Uncoupler at lower concentrations (0.032-0.16 µM), and Uncoupler + inhibitor at high concentrations (0.8 - 100 µM)"
same,concentration at which RCR began to decrease,[5],32 nM
same,concentration at which RCR reached unity (complete uncoupling),[5],4 µM
same,"glutamate/malate-driven state 4 respiration, maximal increase over the baseline level",[5],approximately 4 fold
same,"succinate-driven state 4 respiration, maximal response over the baseline level",[5],2.6 fold
same,uncoupler effect at (concentration) in the oxygen consumption assay,[5],0.032 µM
same,"I-ADP, % of control (O2 consumption rate)",[5]; 0.0064 µM,94 (46.6) % of control
same,"I-sub, % of control (O2 consumption rate)",[5]; 0.0064 µM,108 (14.9) % of control
same,"II-ADP, % of control (O2 consumption rate)",[5]; 0.0064 µM,96 (85.4) % of control
same,"II-sub, % of control (O2 consumption rate)",[5]; 0.0064 µM,90 (24.4) % of control
same,"I-ADP, % of control (O2 consumption rate)",[5]; 0.032 µM,100 (49.4) % of control
same,"I-sub, % of control (O2 consumption rate)",[5]; 0.032 µM,131 (18.2) % of control
same,"II-ADP, % of control (O2 consumption rate)",[5]; 0.032 µM,96 (85.4) % of control
same,"II-sub, % of control (O2 consumption rate)",[5]; 0.032 µM,126 (34.2) % of control
same,"I-ADP, % of control (O2 consumption rate)",[5]; 0.16 µM,115 (56.7) % of control
same,"I-sub, % of control (O2 consumption rate)",[5]; 0.16 µM,251 (34.8) % of control
same,"II-ADP, % of control (O2 consumption rate)",[5]; 0.16 µM,97 (86.6) % of control
same,"II-sub, % of control (O2 consumption rate)",[5]; 0.16 µM,260 (70.2) % of control
same,"I-ADP, % of control (O2 consumption rate)",[5]; 0.8 µM,125 (61.6) % of control
same,"I-sub, % of control (O2 consumption rate)",[5]; 0.8 µM,386 (53.5) % of control
same,"II-ADP, % of control (O2 consumption rate)",[5]; 0.8 µM,67 (59.7) % of control
same,"II-sub, % of control (O2 consumption rate)",[5]; 0.8 µM,247 (66.9) % of control
same,"I-ADP, % of control (O2 consumption rate)",[5]; 4 µM,74 (36.5) % of control
same,"I-sub, % of control (O2 consumption rate)",[5]; 4 µM,264 (36.5) % of control
same,"II-ADP, % of control (O2 consumption rate)",[5]; 4 µM,44 (39.6) % of control
same,"II-sub, % of control (O2 consumption rate)",[5]; 4 µM,189 (51.0) % of control
same,"I-ADP, % of control (O2 consumption rate)",[5]; 20 µM,73 (36.0) % of control
same,"I-sub, % of control (O2 consumption rate)",[5]; 20 µM,278 (38.5) % of control
same,"II-ADP, % of control (O2 consumption rate)",[5]; 20 µM,39 (34.6) % of control
same,"II-sub, % of control (O2 consumption rate)",[5]; 20 µM,165 (44.6) % of control
same,"I-ADP, % of control (O2 consumption rate)",[5]; 100 µM,86 (39.1) % of control
same,"I-sub, % of control (O2 consumption rate)",[5]; 100 µM,263 (40.0) % of control
same,"II-ADP, % of control (O2 consumption rate)",[5]; 100 µM,38 (27.2) % of control
same,"II-sub, % of control (O2 consumption rate)",[5]; 100 µM,98 (30.8) % of control
same,Activity in oxygen consumption,HepG2 cells [6],Uncoupler+inhibitor
same,Parkin recruitment,[7],Active
same,Parkin translocation into mitochondria (in words),[7],significantly increased Parkin translocation into mitochondria
same,HepG2 (efficacy) Galactose (MMP),HepG2 cells [8],1.12±0.33 ( −94.6±1.13 ) %
same,HepG2 (efficacy) Glucose (MMP),HepG2 cells [8],1.05±0.38 ( −95.8±2.94 ) %
same,IC50,HepG2 cells [8]; read-out: HepG2 IC50 Galactose (MMP),1120 nM
same,IC50,HepG2 cells [8]; read-out: HepG2 IC50 Glucose (MMP),1050 nM
same,Rat hepatocytes (efficacy) (MMP),rat primary hepatocytes [9],0.35±0.06 ( −95.4±4.65 ) %
same,"LEC (lowest effect concentration), larval growth assay",[10],< 10 µM
same,"LEC (lowest effect concentration), ATP assay",[11],< 10 µM
same,"LEC LUM: lowest effect concentration for luminescence, a measure of nematode ATP content",[12]; in vivo,5 µM
same,IC50,rat primary hepatocytes [13]; read-out: Rat hepatocytes IC50 (MMP),350 nM
same,"LEC EXT: lowest effect concentration for extinction, a measure of nematode size",[14]; in vivo,2.5 µM
CCOCn1c(-c2ccc(Cl)cc2)c(C#N)c(Br)c1C(F)(F)F [Chlorfenapyr],EC50,"HepG2 cells [1]; Homo sapiens, HepG2, 2 h",1930 nM
same,IC50,"HepG2 cells [2]; Homo sapiens, HepG2, 40 h, read-out: ATP (HepG2, galactose) IC50",7010 nM
same,IC50,"HepG2 cells [2]; Homo sapiens, HepG2, 40 h, read-out: ATP (HepG2, glucose) IC50",6410 nM
same,ARE (HepG2) EC50,"[4]; 16 h incubation, mean±SD of three experiments",Inactive
same,Potential Mechanism,[5],"Uncoupler at low concentrations (0.16-20 µM), and Uncoupler + inhibitor at high concentration (100 µM)"
same,effect on mitochondrial respiration (in words),[5],effects similar to those of FCCP
same,uncoupler effect at (concentration) in the oxygen consumption assay,[5],0.16 µM
same,"I-ADP, % of control (O2 consumption rate)",[5]; 0.032 µM,99 (43.1) % of control
same,"I-sub, % of control (O2 consumption rate)",[5]; 0.032 µM,116 (15.2) % of control
same,"II-ADP, % of control (O2 consumption rate)",[5]; 0.032 µM,99 (67.2) % of control
same,"II-sub, % of control (O2 consumption rate)",[5]; 0.032 µM,108 (22.5) % of control
same,"I-ADP, % of control (O2 consumption rate)",[5]; 0.16 µM,96 (41.8) % of control
same,"I-sub, % of control (O2 consumption rate)",[5]; 0.16 µM,131 (17.1) % of control
same,"II-ADP, % of control (O2 consumption rate)",[5]; 0.16 µM,112 (75.7) % of control
same,"II-sub, % of control (O2 consumption rate)",[5]; 0.16 µM,119 (24.9) % of control
same,"I-ADP, % of control (O2 consumption rate)",[5]; 0.8 µM,120 (52.1) % of control
same,"I-sub, % of control (O2 consumption rate)",[5]; 0.8 µM,242 (31.7) % of control
same,"II-ADP, % of control (O2 consumption rate)",[5]; 0.8 µM,106 (71.8) % of control
same,"II-sub, % of control (O2 consumption rate)",[5]; 0.8 µM,180 (37.6) % of control
same,"I-ADP, % of control (O2 consumption rate)",[5]; 4 µM,177 (76.8) % of control
same,"I-sub, % of control (O2 consumption rate)",[5]; 4 µM,544 (71.3) % of control
same,"II-ADP, % of control (O2 consumption rate)",[5]; 4 µM,124 (84.2) % of control
same,"II-sub, % of control (O2 consumption rate)",[5]; 4 µM,359 (75.1) % of control
same,"I-ADP, % of control (O2 consumption rate)",[5]; 20 µM,91 (39.4) % of control
same,"I-sub, % of control (O2 consumption rate)",[5]; 20 µM,324 (42.4) % of control
same,"II-ADP, % of control (O2 consumption rate)",[5]; 20 µM,80 (54.0) % of control
same,"II-sub, % of control (O2 consumption rate)",[5]; 20 µM,281 (58.7) % of control
same,"I-ADP, % of control (O2 consumption rate)",[5]; 100 µM,54 (28.6) % of control
same,"I-sub, % of control (O2 consumption rate)",[5]; 100 µM,277 (37.3) % of control
same,"II-ADP, % of control (O2 consumption rate)",[5]; 100 µM,35 (23.6) % of control
same,"II-sub, % of control (O2 consumption rate)",[5]; 100 µM,139 (30.2) % of control
same,"effect on oxygen consumption rate, Seahorse (in words)",HepG2 cells [6],effects similar to that of FCCP
same,Parkin recruitment,[7],Active
same,Parkin translocation into mitochondria (in words),[7]; 3 h,patterns similar to antimycin A and FCCP
same,MMP assays efficacy (%) Rat Hepatocytes,rat primary hepatocytes [9],-109±23%
same,Rat hepatocytes (efficacy) (MMP),rat primary hepatocytes [9],0.34±0.11 ( −90.8±10.1 ) %
same,IC50,HepG2 cells [15],0.07 ± 0.04 µM
same,inhibitory effect at (concentration) on larval growth in the C. elegans assay,"[10]; Bristol N2 (wild type), Caenorhabditis elegans",0.05 µM
same,inhibitory effect at (concentration) on ATP content in the C. elegans assay,"[11]; PE255 [sur-5::luc+::gfp, rol-6(su1006)], Caenorhabditis elegans",0.25 µM
same,IC50,"HepG2 cells [16]; HepG2, 1 h, read-out: HepG2 IC50 Galactose (MMP)",1850 nM
same,IC50,"HepG2 cells [16]; HepG2, 1 h, read-out: HepG2 IC50 Glucose (MMP)",1670 nM
same,IC50,"HepG2 cells [16]; HepG2, read-out: IC50 in HepG2 cells (MMP, tier-one retest)",40 nM
same,Emax,"HepG2 cells [16]; HepG2, read-out: MMP assays efficacy (%) HepG2",109%
same,minimal effective concentration,"[12]; Caenorhabditis elegans, read-out: LEC LUM: lowest effect concentration for luminescence, a measure of nematode ATP content",0.25 µM
same,IC50,"rat primary hepatocytes [13]; Rattus norvegicus, Hepatocyte, 1 h, read-out: IC50 in rat primary hepatocytes (MMP, tier-one retest)",70 nM
same,IC50,"rat primary hepatocytes [13]; Rattus norvegicus, Hepatocyte, 1 h, read-out: Rat hepatocytes IC50 (MMP)",340 nM
same,larval growth effect at 0.5μM,[14]; 0.5 µM,severe larval growth arrest
same,minimal effective concentration,"[14]; Caenorhabditis elegans, read-out: LEC EXT: lowest effect concentration for extinction, a measure of nematode size",0.05 µM
